Results: article PMC5766581, “NF-κB inducing kinase is a therapeutic target for systemic lupus erythematosus” (Nature Communications, 2018)

Columns and labels:
NZB/W F1 mice [1] = assay: rAdV-IFNα-accelerated NZB/W F1 lupus model, survival study; format: in vivo, mouse
Procedure: (§1) Age-matched (NZB x NZW) F1 mice were purchased from Jackson Laboratory. Fourteen to fifteen weeks old female NZB/W F1 mice were injected i.v. with 1.2 × 10^8 rAD5-CMV-IFNα (rAdV-IFNα) particles (Genentech) to accelerate disease[34],[69]. […] In efficacy studies, proteinuria and survival were tracked through day 84. A 4-week PD study was performed to measure cell subsets, serum Ig, chemokines, cytokines, and gene expression.
(§2) Kidneys were immersed in 10% neutral buffered formalin at ambient temperature for 24 h, then paraffin-embedded using routine methods. Four micron histologic sections were stained with Periodic acid–Schiff (PAS) for evaluation of glomerulonephritis and hematoxylin and eosin (H&E) for visual evaluation of interstitial inflammation by light microscopy. Scoring by the pathologist was performed in a blinded fashion. Glomerulonephritis severity scoring was on a 4-point semi-quantitative scale: “0” – normal or mild global lesions in <50% of glomeruli, “1”—global lesions in > 50% of glomeruli, <20% of which are severe (defined as >1 segment with <3 patent capillaries), “2”—global lesions in >50% of glomeruli, 20–80% of which are severe, and “3”— >80% of glomeruli with severe global lesions. Chronic pyelitis, cortical periarteritis, and tubulointerstitial nephritis severity was determined by blinded disease scoring. Severity scores for tubulointerstitial nephritis, periarteritis, and pyelitis were all on 4-point semiquantitative scales: “0”—no significant inflammation, “1”—sparse or focal inflammatory infiltrates, “2”—occasional moderately sized inflammatory infiltrates, and “3”—frequent large inflammatory infiltrates. Proteinuria measurements were done by dipstick (Multistix, Bayer Diagnostics). Protein concentration was assigned a proteinuria score with trace = […] = 1, 100 mg/dl = 2, >300 mg/dl = 4, and dead mice = 5.

[2] = In vivo studies in mice: PK, target coverage, tolerability; design: species or system mouse
[3] = tested on: IL-12p40 production from human monocyte derived DC; assay: CD40L induced IL-12p40 production from human DCs; format: cell-based
Procedure: Human monocytes were enriched from whole blood (Monocyte enrichment RosetteSep, Stem Cell) followed by isolation using Monocyte Isolation Kit II (Miltenyi). Isolated monocytes were cultured (RPMI-10% FBS, penicillin/streptomycin, glutamine) with rhGM-CSF (100 ng/mL) and rhIL-4 (6.5 ng/mL) (R&D Systems) for 5 days with GM-CSF replacement on day 3. On Day 5 immature monocyte derived DCs were monitored for differentiation by flow cytometry ([…], CD83^low CD86^low CD209^+/hi). […] After 24 h plates were centrifuged and supernatants were removed for IL-12p40 cytokine measurement by ELISA (BD Biosciences). Plots and IC50 measurements were generated using GraphPad Prism software.

[4] = tested on: 222 recombinant human kinases; assay: SelectScreen kinase panel, overall selectivity; format: biochemical; conditions: 1 μM
Procedure: The ability of NIK to catalyze the hydrolysis of adenosine-5′-triphosphate (ATP) was monitored using the Transcreener ADP (adenosine-5′-diphosphate) assay (Bell Brook Labs, Fitchburg, WI). Purified human NIK kinase domain (a.a. 340–694) (0.5 nM) or mouse NIK kinase domain (a.a. 329–675) (1 nM) derived from a baculovirus-infected insect cell expression system was incubated with test compounds for 0.5–2 h in 50 mM HEPES buffer (pH 7.2) containing 10 mM MgCl2, 2 mM dithiothreitol, 10 μM ATP, 0.01% Triton X-100, 0.1% gamma-globulins from bovine blood, 1% dimethylsulfoxide (DMSO), 7 μg/mL ADP antibody and 5 nM ADP-MR121 633 tracer. […] The tracer bound to the antibody was displaced by the ADP generated during the NIK reaction, which caused a decrease in fluorescence polarization that was measured by laser excitation at 633 nm with a Fluorescence Correlation Spectroscopy Plus reader (Evotec AG). Equilibrium dissociation constant (Ki) values for NIK inhibitors are calculated from plots of activity vs. inhibitor concentration using Morrison’s quadratic equation that accounts for the potential of tight binding, and by also applying the conversion factor that accounted for competitive inhibition and the concentration of substrate used in the assay relative to its Michaelis constant (Km). The Ki values with hPKD1 (PKCμ) were determined using the same assay conditions as for NIK. […]

human B cells = assay: Human B cell rhCD40L proliferation assay; format: cell-based; conditions: Homo sapiens, B-cell; thymidine incorporation, day four; read-out: Human B cell anti-CD40 proliferation IC50
NZB/W F1 mice [5] = assay: rAdV-IFNα-accelerated NZB/W F1 lupus model, 4-week biomarker study; format: in vivo; conditions: 180 mg/kg BID P.O.
Procedure: as §1, §2

With `COc1cc(C(N)=O)nc(-c2cccc(C#C[C@]3(O)CCN(C)C3=O)c2)c1` [NIK SMI1] the reduction of mortality (NZB/W F1 mice [1]; 180 mg/kg BID P.O., 9 weeks) was “about 50%”, the “inhibition of NIK at the time point of lowest exposure” value (NZB/W F1 mice [1]; 180 mg/kg, 12 h after the prior dose, based on PK sampling) was “about 70%” and the proteinuria score (NZB/W F1 mice [1]; 9 weeks of treatment, AUC day 19-84) was “statistically significant reduction”. The survival (NZB/W F1 mice [1]; IFNα-accelerated NZB/W F1 mice) was “improved survival”, the “adverse effect not explained by on-target pharmacology” value ([2]; 180 mg/kg, no formal toxicity assessment) was “never observed any adverse effect” and the “coverage of NIK activity in vivo” value ([2]; doses used in vivo) was 70–90%. For the same compound, the PK properties ([2]; mouse, in vivo) was “excellent”, the “CD40L-induced IL-12p40 production” value ([3]; dendritic cells) was “nearly completely inhibited” and the IC50 ([3]; human monocyte derived DC, rhCD40L, mean ± SD, read-out: CD40-induced IL-12 p40 IC50) was 95.8 nM. For the same compound, the “off-target kinases inhibited to an extent >75%” value [4] was 3 out of 222, the IC50 (human B cells) was over 10 µM and the “frequency and numbers of splenic B cells, germinal center B cells and plasma cells” value (NZB/W F1 mice [5]; 4 weeks) was “decreased”. For the same compound, the “frequency and numbers of splenic T effector memory (TEM) and T follicular helper (TFH) cells” value (NZB/W F1 mice [5]; 4 weeks) was “significantly reduced”, the “frequency and numbers of total CD4+ T-cells” value (NZB/W F1 mice [5]; 4 weeks) was “did not affect” and the “histopathologic scores of glomerulonephritis” value (NZB/W F1 mice [5]; 4 weeks) was “reduced”. For the same compound, the “kidney expression of CCL9, CCL2, CXCL13 and CXCL11” value (NZB/W F1 mice [5]; 4 weeks) was “reduced”, the “serum CXCL16” value (NZB/W F1 mice [5]; 4 weeks) was “significantly reduced” and the “serum TNF and IL-12p40” value (NZB/W F1 mice [5]; 4 weeks) was “reduced”. The “spleen weight or total splenocyte count” value (NZB/W F1 mice [5]; 4 weeks) was “did not have a substantial effect”, the “splenic expression of ICOS and IL-21” value (NZB/W F1 mice [5]; 4 weeks) was “reduced” and the “splenic expression of Immunoglobulin J (Igj)” value (NZB/W F1 mice [5]; 4 weeks) was “strongly suppressed”. The “suppression of serum anti-histone autoantibodies” value (NZB/W F1 mice [5]; 4 weeks, vs BR3-mIgG2a) was “superior to BAFF blockade” and the “terminal exposure vs in vitro IC70” value (NZB/W F1 mice [5]; 12 hours after final dose) was “at or above the in vitro-determined IC70 concentration”.
